Measured values from patent publication US20110082203A1, “PROCESS TO DIAGNOSE OR TREAT BRAIN INJURY” (priority 2008, published 2011).

Assays:
[1] = Body weight loss after controlled cortical impact (CCI) TBI; format: in vivo, rat; details: 5 mg/kg i.p. five minutes prior to TBI
Protocol: (§1) In vivo model of TBI injury model: A controlled cortical impact (CCI) device is used to model TBI on rats as previously described (Pike et al, 1998). Adult male (280-300 g) Sprague-Dawley rats (Harlan: Indianapolis, Ind.) are anesthetized with 4% isoflurane in a carrier gas of 1:1 O2/N2O (4 min.) and maintained in 2.5% isoflurane in the same carrier gas. Core body temperature is monitored continuously by a rectal thermistor probe and maintained at 37±1° C. by placing an adjustable temperature controlled heating pad beneath the rats. Animals are mounted in a stereotactic frame in a prone position and secured by ear and incisor bars. Following a midline cranial incision and reflection of the soft tissues, a unilateral (ipsilateral to site of impact) craniotomy (7 mm diameter) is performed adjacent to the central suture, midway between bregma and lambda. The dura mater is kept intact over the cortex. Brain trauma is produced by impacting the right (ipsilateral) cortex with a 5 mm diameter aluminum impactor tip (housed in a pneumatic cylinder) at a velocity of 3.5 m/s with a 1.6 mm compression and 150 ms dwell time.
Subjects are administered CCI essentially as described in Example 2 and CSF is prepared as described in Example 4. […] The vehicle-treatment group receives an equal volume i.p. injection of isotonic saline. […]

[2] = test system: Fluoro-Jade positive neurons; assay: Fluoro-Jade staining of degenerating neurons following CCI, counted by optical fractionator; format: in vivo, rat
Protocol: Fluoro-Jade is used to determine whether the presence of dicyclomine affects cell death following CCI. Experimental procedures are performed as described by Cox, C D, et al. 2008. Briefly, at 24 hours (±1 hr) following the perfusion, brains are rinsed in 0.1M PB (5 minutes×2), cryoprotected in 10% and 30% solutions of sucrose in 0.1M PB for 1 hour and 48 hours, respectively, and stored in the 30% sucrose/PB solution at −80° C. The brains are blocked and sectioned caudorostrally in 45 μm increments from Bregma—1.9 mm to Bregma—4.15 mm using a sliding microtome (American Optical Corp., model 860). The tissue sections are then mounted onto slides using distilled water and allowed to dry. For the Fluoro-Jade staining procedure (Schmued et al., 1997), the sections are rehydrated using successive 5 minute rinses in 100%, 75%, 50%, and 25% ethanol followed by 3 minutes in dH2O, placed in 0.06% KMNO4 for 15 minutes followed by 2 minutes in dH2O, and then stained in 0.0006% Fluoro-Jade B solution in 0.1% acetic acid for 30 minutes. The slides are air-dried overnight, immersed in xylene, and coverslipped with DPX.
The total number of Fluoro-Jade stained cells within the CA2/CA3 region of the dorsal hippocampus for each subject is estimated using the optical fractionator technique (West et al., 1991) with a computer-based system (Stereologer version 1.3, Systems Planning and Analysis, Inc., Alexandria, Va.). The border of the dorsal CA2/3 pyramidal cell layer within each section was outlined using a 2× objective, and the cells are then manually counted at the 40× magnification. For the cortical cell counts, a site of highly localized Fluoro-Jade positivity observed in the cortex adjacent to the site of impact serves as the ROI: the region was outlined at the 2× magnification and cells were quantified at 40× as with the hippocampal region. A numerical estimate of the total number of cells in each region of interest for each subject is calculated by the software using the equation:
Nobj=(N)(1/SSF)(1/ASF)(1/TSF)
Where N represents the sum of all objects counted for the subject, SSF the section sampling fraction, ASF the area sampling fraction, and TSF the thickness sampling fraction.

[3] = test system: α-II spectrin breakdown products (SBDP); details: 5 mg/kg i.p. five minutes prior to TBI
Protocol: as §1
Tissue and Sample Preparation: At the appropriate time points (2, 6, 24 hours and 2, 3, 5 days) after injury, animals are anesthetized and immediately sacrificed by decapitation. Brains are quickly removed, rinsed with ice cold PBS and halved. […]

CCN(CC)CCOC(=O)C1(C2CCCCC2)CCCCC1 [Dicyclomine, dicyclomine]
% Body Weight Loss ([1]; mean +/- spread, * p<0.01 vs saline): *7.8 +/− 2.08% | Percent body weight loss compared to the saline-treated group ([1]; p<0.01): significantly reduced | Mean number of Fluoro-Jade positive neurons, hippocampal ROI ([2]; CA2/CA3 dorsal hippocampus, 24 hours post-TBI, 5 mg/kg i.p., vehicle 2982): 2640 | Mean number of Fluoro-Jade positive neurons, cortical ROI ([2]; cortex adjacent to impact site, 24 hours post-TBI, 5 mg/kg i.p., vehicle 84392): 84452 | Effect on neuronal cell viability ([2]; following TBI): no effect | Difference in Fluoro-Jade positive neurons between treatment groups (T-test) ([2]; hippocampal and cortical ROIs, dicyclomine vs vehicle): no significant difference | Production of SBDPs in CSF following TBI [3]: inhibits production of SBDPs
